Patent US6835382B2, “Ii peptide therapeutics to enhance antigen presentation” (University of Massachusetts, priority 1996, dated 2004)
Positions of bridges follow the written chain, without caps; N, C: chain ends. Non-standard residues stand in square brackets, D forms with d. No end group written: not given here. hArg = N=C(N)NCCCC[C@H](N)C(=O)O; Cit = NC(=O)NCCC[C@H](N)C(=O)O

Tested on: murine E^k MHC class II allele
Assay: simultaneous assay, E^k allele (CH27 APC, TPc9.1 T hybridoma, THMCC82-103 or PGCC81-104)
Type: cell-based
Details: Table 15; AE peptide 16 μM; supernatant 1:4
Outline: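 Antigenic peptide, mitomycin C-treated APC, effector compound and allele-restricted T hybridoma cultured together for 24 h. Supernatant then transferred to interleukin-dependent HT-2 cells. T cell activation quantified as [3H]TdR uptake by HT-2 cells.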

Substance | Times Baseline Response, E^k
Ac-A[Cit]NKNPK-NH2 [AE351] | 1.6
Ac-LR Orn K HArg PK-NH2 [AE340] | 39.5
Ac-LRMKNPF-NH2 [AE350] | 24.2

Same assay, conditions: Table 16; AE peptide 4 μM; supernatant 1:8

Substance | Times Baseline Response, E^k
Ac-FK HArg MYP Cit-NH2 [AE371] | 1.5
Ac-LK HArg KYPK-NH2 [AE363] | 1.7
Ac-LKMKYPK-NH2 [AE362] | 1.3
Ac-LR HArg KYP Cit-NH2 [AE366] | 49.4
Ac-LR HArg MYPK-NH2 [AE365] | 20.1
Ac-LRLKYPN-NH2 [AE368] | 11.2
Ac-LRMKYPN-NH2 [AE370] | 7.5
Ac-LRMKYP[Cit]-NH2 [AE364] | 16.6
Ac-LRMMYP[Cit]-NH2 [AE367] | 6.6
Ac-L[hArg]LKYPK-NH2 [AE361] | 4.6
Ac-L[hArg]MKYPK-NH2 [AE360] | 2.5

Same assay, conditions: Table 18; AE peptide 64 μM; supernatant 1:4

Substance | Times Baseline Response, E^k
Ac-LRMKLPK (lactam 4-C) [AE382] | 18.1
cyclic LRMKLPK (bridge (positions not given here); also: cyclic, ring type not given here) [AE381, “head-to-tail” cyclization from the amino-terminus to the carboxyl-terminus of AE114] | 0.56

Same assay, conditions: Tables 2 and 18

Substance | activity in simultaneous assay on E^k, in words
Ac-LRMKLPK (lactam 4-C) [AE382] | moderately active
